# Columns and labels:
# [1] = system: Candida haemulonii var. vulnera; experiment: Planktonic growth, broth microdilution (CLSI M27-A3), MIC; format: cell-based; settings: for GM-MIC: geometric mean of three C. haemulonii var. vulnera isolates; for MIC: planktonic, 48 h, 37°C
# Summary of the method: (§1)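 Clinical isolates (nail, blood, urine) grown 48 h at 37°C in Sabouraud-dextrose, then tested by CLSI M27-A3 broth microdilution in RPMI 1640 over 0.0625-32 mg/L, 48 h at 37°C. MIC is the lowest concentration with no visible growth; geometric mean MIC calculated across all isolates.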
# Candida duobushaemulonii = experiment: as above; format: cell-based; settings: for GM-MIC: geometric mean of three C. duobushaemulonii isolates; for MIC: planktonic, 48 h, 37°C
# Summary of the method: as §1
# Candida haemulonii = experiment: as above; format: cell-based; settings: for GM-MIC: geometric mean of three C. haemulonii isolates; for MIC: planktonic, 48 h, 37°C
# Summary of the method: as §1
# C. haemulonii complex = experiment: Planktonic growth, overall across all nine isolates; format: cell-based, Candida haemulonii complex; settings: geometric mean across all nine strains; for MIC: in μM, read-out: Overall GM-MIC
# Summary of the method: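 CLSI M27-A3 microdilution, RPMI 1640, 0.0625-32 mg/L; compounds from DMSO, metal salts and phen in water; 37°C, 48 h; MIC = no visible growth. Overall value: GM-MIC over nine isolates.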
Molecule,GM-MIC [1] [µg/mL],MIC ([1]; isolate LIP Ch5) [µg/mL],MIC ([1]; isolate LIP Ch9) [µg/mL],MIC ([1]; isolate LIP Ch11) [µg/mL],GM-MIC (Candida duobushaemulonii) [µg/mL],MIC (Candida duobushaemulonii; isolate LIP Ch1) [µg/mL],MIC (Candida duobushaemulonii; isolate LIP Ch6) [µg/mL],MIC (Candida duobushaemulonii; isolate LIP Ch8) [µg/mL],GM-MIC (Candida haemulonii) [µg/mL],MIC (Candida haemulonii; isolate LIP Ch4) [µg/mL],MIC (Candida haemulonii; isolate LIP Ch7) [µg/mL],MIC (Candida haemulonii; isolate LIP Ch12) [µg/mL],Overall GM-MIC (C. haemulonii complex) [µg/mL],MIC (C. haemulonii complex) [µM]
"CCO.O=C([O-])COCCOCCOCC(=O)[O-].[Ag+].[Ag+].c1cnc2c(c1)ccc1cccnc12.c1cnc2c(c1)ccc1cccnc12.c1cnc2c(c1)ccc1cccnc12.c1cnc2c(c1)ccc1cccnc12 [compound 16, [Ag2(3,6,9-tdda)(phen)4].EtOH]",0.79,1,0.5,1,1.26,2,1,1,1,1,1,1,1,0.83
"{[Cu(3,6,9-tdda)(phen)2].3H2O.EtOH}n [compound 7]",2.52,2,2,4,2,2,2,2,3.17,4,4,2,2.52,3.37

# Reference: article PMC5504357, “Antifungal Potential of Copper(II), Manganese(II) and Silver(I) 1,10-Phenanthroline Chelates Against Multidrug-Resistant Fungal Species Forming the Candida haemulonii Complex: Impact on the Planktonic and Biofilm Lifestyles” (Frontiers in Microbiology, 2017)
